Data published in US9556156B2, “Compounds, their synthesis and their uses” (priority 2012, dated 2017).
Where two headings read alike, the source gives them in different places.

Test system: Sprague Dawley (SD) rat
Assay type: in vivo
Description: The general anesthetic activity of Propofol novel drug compound 1004 was evaluated in rats. All animal experiments were performed as per CPCSEA guidelines. The studies were carried out in Sprague Dawley (SD) rat in the weight range […] by intravenous tail vein dosing over a period of 10 seconds. The formulations of the compound 1004 for IV dosing in rats were prepared in pre-mix PEG400 and saline. Formulations of 1004 equivalent to 5 mpk (14 mpk of compd. 1004) and 7.5 mpk (equivalent to 21 mpk of compound 1004) of parent drug Propofol were prepared in 15% PEG400 and 85% normal saline. The monitoring of distinguishable levels of sedation was started during the dosing period and continued till animals regained consciousness. The onset, duration of sleep and recovery time was recorded.

| SMILES | Recovery (SD rat, IV tail vein, Propofol Eq. 7.5 mpk, vehicle 15% PEG400, 85% NS) | General Anesthesia (GA) (onset of GA, SD rat, IV tail vein over 10 seconds, Propofol Eq. 7.5 mpk, vehicle 15% PEG400, 85% NS) | General Anesthesia (GA) (rat, in vivo) | Recovery (rat, in vivo) |
| --- | --- | --- | --- | --- |
| CNC(=O)c1ccc[n+](COC(=O)Oc2c(C(C)C)cccc2C(C)C)c1.[I-] [Compound 1004, 1-(((2,6-diisopropylphenoxy)carbonyloxy)methyl)-3-(methylcarbamoyl)pyridinium iodide] | Complete | After 1 min |  |  |
| CC(C)c1cccc(C(C)C)c1O [Propofol, 2,6-diisopropylphenol] |  |  | No GA | Complete |
